Patent publication US8119168B2, “Personal care compositions comprising a zinc containing material in an aqueous surfactant composition” (The Procter & Gamble Company, priority 2002, dated 2012)

Assay: Zincon metallochromic dye test for available Zn^2+ (visual color change orange to blue)
Type: physicochemical
Settings: ZCM ~30 mg/10 ml water, pH 7-11, binary visual assessment
Description: Zinc-containing materials (ZCMs) differ with respect to how strongly the zinc ion (Zn^2+) is held by counterions in the crystal lattice. The benefits discussed herein depend upon having available Zn^2+. […] The response is a binary visual assessment of whether or not the color changes indicating zinc-binding.
The method is based on the commercial metallochromic dye zincon. Zincon changes from an orange color to blue upon binding zinc and provides the basis for detecting available Zn^2+:
The specific procedure involves making a stock solution of zincon in ethanol (˜50 mg/10 ml ethanol). The ZCM is then added to water (˜30 mg/10 ml water) and agitated (pH range should be 7-11). Three to four drops of zincon solution are then added to the ZCM in water, agitated and a visual assessment of color change made.

Compound	available Zn^2+ (zincon color change)
[O]=[Zn] [Zinc Oxide]	have available zinc
O=C([O-])CN(CCN(CC(=O)[O-])CC(=O)[O-])CC(=O)[O-].[Na+].[Na+].[Zn+2] [zinc EDTA]	not having available Zn^2+
CC(=O)[O-].CC(=O)[O-].[Zn+2] [zinc acetate]	have available zinc
N=C(N)NCCC[C@H](N)C(=O)O.[Zn] [zinc arginine]	have available zinc
[Cl-].[Cl-].[Zn+2] [zinc chloride]	have available zinc
O=C([O-])CC(O)(CC(=O)[O-])C(=O)[O-].O=C([O-])CC(O)(CC(=O)[O-])C(=O)[O-].[Zn+2].[Zn+2].[Zn+2] [zinc citrate]	have available zinc
[OH-].[OH-].[Zn+2] [zinc hydroxide]	have available zinc
CC(O)C(=O)[O-].CC(O)C(=O)[O-].[Zn+2] (stereo not drawn) [zinc lactate]	have available zinc
OCC(O)CO.[Zn] [zinc monoglycerolate]	have available zinc
O=C([O-])C(=O)[O-].[Zn+2] [zinc oxalate]	have available zinc
O=S(=O)([O-])[O-].[Zn+2] [zinc sulfate]	have available zinc
zinc hexaborate	have available zinc
zinc histadine	have available zinc
zinc phytate	not having available Zn^2+
zinc stearate	have available zinc

Assay: Relative zinc lability by xylenol orange (XO) color change, absorbance at 572 nm
Type: physicochemical
Settings: 6% sodium lauryl sulfate
Method: Zinc lability is a measure of the chemical availability of zinc ion. […] The use of partially soluble forms of zinc salts and/or incorporation in a matrix with potential complexants generally lowers the zinc lability substantially below the defined 100% maximum.
Zinc lability is assessed by combining a diluted zinc-containing solution or dispersion with the metallochromic dye xylenol orange (XO) and measurement of the degree of color change under specified conditions. The magnitude of color formation is proportional to the level of labile zinc. The procedure developed has been optimized for aqueous surfactant formulations but may be adapted to other physical product forms as well.
A spectrophotometer is used to quantify the color change at 572 nm, the wavelength of optimum color change for XO. The spectrophotometer is set to zero absorbance at 572 nm utilizing a product control as close in composition to the test product except excluding the potentially labile form of zinc. The control and test products are then treated identically as follows. A 50 μl product sample is dispensed into a jar and 95 ml of deaerated, distilled water are added and stirred. 5 mL of a 23 mg/mL xylenol orange stock solution at pH 5.0 is pipetted into the sample jar; this is considered time 0. The pH is then adjusted to 5.50±0.01 using dilute HCl or NaOH. After 10.0 minutes, a portion of the sample is filtered (0.45μ) and the absorbance measured at 572 nm. The measured absorbance is then compared to a separately measured control to determine the relative zinc lability (zero TO 100%). The 100% lability control is prepared in a matrix similar to the test products but utilizing a soluble zinc material (such as zinc sulfate) incorporated at an equivalent level on a zinc basis. The absorbance of the 100% lability control is measured as above for the test materials.

Compound	Relative Zinc Lability (%) Simple Surfactant System Alone
O=C([O-])[O-].O=C([O-])[O-].[OH-].[OH-].[OH-].[OH-].[OH-].[OH-].[Zn+2].[Zn+2].[Zn+2].[Zn+2].[Zn+2] [Hydrozincite]	37.0%
[O]=[Zn] [Zinc Oxide]	1.5%

Same assay, conditions: 6% sodium lauryl sulfate plus sodium bicarbonate at 0.2% level

Compound	Relative Zinc Lability (%) Simple Surfactant System Plus Sodium Bicarbonate
[O]=[Zn] [Zinc Oxide]	33.2%
